According to article PMC9414584, “Synthesis and Biological Evaluation of Indole-2-Carboxamides with Potent Apoptotic Antiproliferative Activity as EGFR/CDK2 Dual Inhibitors” (Pharmaceuticals, 2022):
Values joined by “and” are separate entries in the source; they are usually repeats but may differ in a detail not shown here. Identical values can stand only once.

How the values were obtained:
[1] = system: Cytochrome C in MCF-7 human breast cancer cell line; assay: Cytochrome C assay in MCF-7 cells; type: cell-based; details: for Cytochrome C Fold Change: vs untreated control cells
Description: The quantity of cytochrome C within the cell is important for activating caspases and commencing the intrinsic apoptosis process. […] The findings add to the evidence that apoptosis can be attributed to Cytochrome C overexpression and activation of the intrinsic apoptotic pathway triggered by the investigated compounds.
Indole-2-carboxamide derivatives 5d, 5e, and 5h were evaluated as Cytochrome C activators in the MCF-7 human breast cancer cell line.

[2] = system: four human cancer cell lines (Panc-1, MCF-7, HT-29, A-549); assay: Antiproliferative MTT assay, average of four cancer cell lines (mean GI50); type: cell-based; details: Homo sapiens; average of A-549, MCF-7, Panc-1, HT-29; read-out: Antiproliferative Activity IC50 Average (GI50 against the four cell lines)
[3] = system: Bax in breast cancer cell line (MCF-7); assay: Bax level assay in MCF-7 cells; type: cell-based, human; details: for Bax Fold Change: increase over control untreated cells
[4] = system: pancreas cancer cell line (Panc-1); assay: Antiproliferative MTT assay, Panc-1; type: cell-based; details: Homo sapiens; Panc-1, MTT; read-out: Antiproliferative Activity IC50 ± SEM Panc-1
Source text: (§1) Using the MTT assay with doxorubicin as the reference drug, the antiproliferative activities of 5a–k, 6a–c, and 7 against four human cancer cell lines, including pancreas cancer cell line (Panc-1), breast cancer cell line (MCF-7), colon cancer cell line (HT-29), and epithelial cancer cell line (A-549) were investigated.

[5] = system: epithelial cancer cell line (A-549); assay: Antiproliferative MTT assay, A-549; type: cell-based; details: Homo sapiens, A549; A-549, MTT; read-out: Antiproliferative Activity IC50 ± SEM A-549
Source text: as §1

[6] = Cell viability assay (MTT) on MCF-10A cells; type: cell-based; details: human, MCF-10A mammary gland epithelial cells
Description: (§2) The MCF-10A (human mammary gland epithelial) cell line was used in the cell viability experiment. Compounds 5a–k, 6a–c, and 7 were incubated with MCF-10A cells for 4 days at 50 µM concentration, and the viability of cells was determined using the 3-(4,5-dimethylthiazol-2-yl)-2,5-diphenyltetrazolium bromide (MTT) test.. All compounds had no cytotoxic effects, and the vitality of the cells was more than 83% for most of the compounds examined.
as §2, with “test.” for “test.. All compounds had no cytotoxic effects, and the vitality of the cells was more than 83% for most of the compounds examined.”

[7] = system: Caspase-9 in MCF-7 breast cancer cell line; assay: Caspase-9 level in MCF-7 cells; type: cell-based, human; details: for Caspase-9 Fold Change: vs control cells
[8] = system: p53 in MCF-7; assay: p53 transcription/level in MCF-7; type: cell-based, human; details: MCF-7 cells
Source text: p53 is a unique protein that participates in several physiological processes such as cell metabolism, stem cell maintenance, and cell adhesion. Because p53 is frequently inactivated in cancer cells, the cells are unable to undergo apoptosis. Similarly, activating, or stabilizing p53 aids cancer cells in normalizing p53-controlled physiological processes and increasing apoptotic activity.

[9] = molecular target: CDK2 enzyme (Homo sapiens, UniProt P24941); assay: CDK2 inhibitory assay
[10] = system: Bcl-2 in breast cancer cell line (MCF-7); assay: Bcl-2 level assay in MCF-7 cells; type: cell-based, human; details: for Bcl-2 Fold Change: reduced level vs control
[11] = system: colon cancer cell line (HT-29); assay: Antiproliferative MTT assay, HT-29; type: cell-based; details: Homo sapiens; HT-29, MTT; read-out: Antiproliferative Activity IC50 ± SEM HT-29
Source text: as §1

[12] = molecular target: EGFR (Homo sapiens, UniProt P00533); assay: EGFR-TK inhibitory assay; type: biochemical; details: read-out: EGFR Inhibition IC50 ± SEM
EGFR, sequence (P00533 25-1210): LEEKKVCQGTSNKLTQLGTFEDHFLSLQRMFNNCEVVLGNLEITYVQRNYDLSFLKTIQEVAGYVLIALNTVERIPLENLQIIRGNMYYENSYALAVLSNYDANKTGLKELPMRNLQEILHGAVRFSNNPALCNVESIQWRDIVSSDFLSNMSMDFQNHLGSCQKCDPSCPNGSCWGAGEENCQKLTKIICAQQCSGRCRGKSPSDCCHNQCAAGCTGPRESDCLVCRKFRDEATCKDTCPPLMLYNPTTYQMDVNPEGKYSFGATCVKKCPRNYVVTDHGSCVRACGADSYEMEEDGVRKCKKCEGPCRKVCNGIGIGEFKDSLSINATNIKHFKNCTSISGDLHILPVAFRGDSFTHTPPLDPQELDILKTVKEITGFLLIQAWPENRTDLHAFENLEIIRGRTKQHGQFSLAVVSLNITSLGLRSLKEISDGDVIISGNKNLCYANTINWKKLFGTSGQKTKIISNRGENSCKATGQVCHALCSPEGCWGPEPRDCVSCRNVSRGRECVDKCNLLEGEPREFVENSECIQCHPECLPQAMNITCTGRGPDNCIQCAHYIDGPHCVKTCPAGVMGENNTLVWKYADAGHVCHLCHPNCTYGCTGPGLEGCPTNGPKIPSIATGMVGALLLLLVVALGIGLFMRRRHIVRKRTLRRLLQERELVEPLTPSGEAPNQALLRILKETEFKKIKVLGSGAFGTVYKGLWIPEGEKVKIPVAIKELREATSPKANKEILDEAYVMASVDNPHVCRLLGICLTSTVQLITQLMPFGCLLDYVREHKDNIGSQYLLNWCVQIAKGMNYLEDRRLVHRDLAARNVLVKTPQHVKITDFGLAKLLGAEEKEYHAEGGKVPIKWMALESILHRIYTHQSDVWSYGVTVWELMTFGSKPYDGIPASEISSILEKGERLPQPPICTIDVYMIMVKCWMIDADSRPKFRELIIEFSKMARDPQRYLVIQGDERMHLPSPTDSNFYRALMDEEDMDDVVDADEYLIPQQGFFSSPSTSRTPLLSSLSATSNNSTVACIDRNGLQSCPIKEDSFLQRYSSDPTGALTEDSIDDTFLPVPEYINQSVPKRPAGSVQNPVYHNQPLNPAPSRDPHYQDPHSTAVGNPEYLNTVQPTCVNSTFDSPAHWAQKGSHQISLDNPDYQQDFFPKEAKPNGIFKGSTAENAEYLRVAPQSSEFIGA

[13] = system: Caspase-3 in MCF-7 breast cancer cell line; assay: Caspase-3 level in MCF-7 cells; details: for Caspase-3 Fold Change: vs control untreated cells
[14] = system: breast cancer cell line (MCF-7); assay: Antiproliferative MTT assay, MCF-7; type: cell-based; details: Homo sapiens, MCF7; MCF-7, MTT; read-out: Antiproliferative Activity IC50 ± SEM MCF-7
Source text: as §1

[15] = system: Caspase-8 in MCF-7 breast cancer cell line; assay: Caspase-8 level in MCF-7 cells; type: cell-based, human; details: for Caspase-8 Fold Change: vs control cells
[16] = system: A549 lung, MCF-7 breast, Panc-1 Pancreatic, and HT-29 colon cancer cell lines; design: method as in PMID 31128433; details: A549, MCF-7, Panc-1, HT-29; read-out: GI50 against the four examined cell lines (mean GI50); cited from earlier work

SMILES	Cytochrome C Conc [1]	Cytochrome C Fold Change [1]	IC50 [2]	Bax Conc [3]	Bax Fold Change [3]	IC50 [4]	IC50 [5]	Caspase-9 Conc [7]	Caspase-9 Fold Change [7]	p53 Conc [8]	Bcl-2 Conc [10]	Bcl-2 Fold Change [10]	IC50 [11]	Caspase-3 Conc [13]	Caspase-3 Fold Change [13]	IC50 [14]	Caspase-8 Conc [15]	Caspase-8 Fold Change [15]	also measured
Cc1c(C(=O)NCCc2ccc(N3CCCC3C)cc2)[nH]c2ccc(Cl)cc12 (stereo not shown) [Compound 5e, 5-Chloro-3-methyl-N-(4-(2-methylpyrrolidin-1-yl)phenethyl)-1H-indole-2-carboxamide]	0.80 ng/mL	16 fold	950 nM	296.50 pg/mL and 296.50 ± 2.50 pg/mL	36 fold	1000 ± 200 nM	950 ± 50 nM	17.25 ng/mL	18.15 fold	1435 pg/mL and 1435 ± 15 pg/mL	0.87 ng/mL	5.90 fold	1100 ± 100 nM	635.50 ± 5.50 pg/mL	9.70 fold	800 ± 50 nM	2.17 ng/mL	10.90 fold	viability at 4 days, 50 µM [6]: 93%; IC50 [9]: 13 ± 1 nM; fold more active than dinaciclib on CDK2 ([9]; vs reference dinaciclib): 1.5 fold; IC50 [12]: 93 ± 8 nM
COc1cccc2c1C(=O)c1c(O)c3c(c(O)c1C2=O)C[C@@](O)(C(=O)CO)C[C@@H]3O[C@H]1C[C@H](N)[C@H](O)[C@H](C)O1 [Doxorubicin, reference compound]	0.60 ng/mL	12 fold	1100 nM	275.80 ± 2.50 pg/mL	33 fold	1400 ± 200 nM	1200 ± 200 nM	16.25 ng/mL	17.00 fold	1265 ± 10 pg/mL	0.98 ng/mL	5.20 fold	1000 ± 100 nM	503.50 ± 4.50 pg/mL	7.70 fold	900 ± 100 nM	1.80 ng/mL	9.00 fold	GI50 [16]: 1130 nM; p53 Fold Change ([8]; vs control): 25 fold; p53 Conc ([8]; listed as doxorubicin): 1265 pg/mL
